Assay [1] concerns C. albicans ATCC 14053. In words: MIC microdilution susceptibility testing, C. albicans in RPMI. The format is cell-based, Candida albicans. The settings on record: RPMI medium pH 6.9, 35-37° C., 24-48 h, average of three experiments; for MIC: Candida albicans, ATCC14053, read-out: MIC C. albicans ATCC 14053, RPMI. The protocol:
(§1) Microorganisnis. […] Stock cultures were kept on Sabouraud dextrose agar (SDA; Becton-Dickinson and Co., Sparks, Md.). Subcultures were prepared on SDA at 35-37° C. Suspension cultures were prepared by inoculation of single colonies in 7 ml of normal saline solution.
(§2) Test compounds were dissolved in DMSO (0.56 mg/ml) and stored at 0° C. Working dilutions were made in RPMI or SDB medium. […] The final maximum concentration of DMSO in the assays was 5% (v/v).
(§3) Microdilutions for control experiments with C. albicans, A. niger, and C. neoformans were the modified method of National Committee for Clinical Laboratory Standards (NCCLS) method as described by Galgiani and by the more recent NCCLS M27-A microdilution methods as described previously. Galgiani, J. N. Antimicrob. Agents Chemother. […] Reference method for broth dilution antifungal susceptibility testing for yeasts. Approval standard. […] 9; C. arballeira, N. M., et al. Arch. Pharm.-Pharm. […] Dilutions were prepared in 0.1 ml of RPMI or SDB; the inocula were either 10^4 C. albicans or C. neoformans cells or A. niger spores. The tubes were incubated for 24-48 h at 36±1° C., and turbidity was read visually.
A general note: Broth dilution looks for growth in wells or tubes with falling amounts of substance.

The test system of another assay is C. neoformans ATCC 66031. Nature of the assay: MIC microdilution susceptibility testing, C. neoformans in SDB. The assay is classed as cell-based, Cryptococcus neoformans. The settings on record: SDB medium, 35-37° C., 24-48 h, average of three experiments; for MIC: Cryptococcus neoformans, ATCC66031. The protocol:
as §1, §2, §3

In assay [2] the test system is C. albicans ATCC 14053. In words: Interaction studies (FIC index) against C. albicans in SDB. The settings on record: for FIC index: mixed with FLC, C. albicans ATCC 14053, SDB. The assay is classed as cell-based, Candida albicans. An excerpt: . Fractional Inhibitory Concentration (FIC) index [FICindex=FICA+FICB] calculation was used to determine synergism between different components of the synthesized compounds while administered separately, where FICA or FICB equals to MIC of compounds A or B in combination divided by MIC of drug A or B alone. If the FIC index is ≦0.5, the combination is synergistic. […]

Assay [3] concerns C. albicans ATCC 14053. In words: MIC microdilution susceptibility testing, C. albicans in SDB. The format is cell-based, Candida albicans. The settings on record: for MIC: Candida albicans, ATCC14053, pH 5.6, SDB medium pH 5.6, 35-37° C.; for MIC / MIC C. albicans ATCC 14053, SDB: 24-48 h, average of three experiments; for fold more active than FLC against C. albicans in SDB: MIC ratio to FLC; for MIC C. albicans ATCC 14053, SDB: SDB medium pH 5.6, 35-37° C.; for fold less antifungal activity against C. albicans in SDB than in RPMI: SDB versus RPMI. As to the method: as §1, §2, §3

Another assay relates to A. niger ATCC 16404. Nature of the assay: MIC microdilution susceptibility testing, A. niger in SDB. The format is cell-based, Aspergillus niger. The settings on record: for MIC: Aspergillus niger, ATCC16404; for MIC / MIC A. niger ATCC 16404, SDB: SDB medium, 35-37° C., 24-48 h, average of three experiments; for fold more potent than FLC against A. niger: MIC ratio to FLC, SDB. As to the method: as §1, §2, §3

≈ marks a conversion by molar mass, not a printed value. A value given as a limit tells only on which side of the number the result lay.

For orientation: MIC means the smallest concentration in the dilution series that meets the test's criterion for growth inhibition.

As for `CCCCCCC(Br)C(=O)O` (stereo not shown) [2-Bromooctanoic acid, reference compound], the results for the MIC in the assay on C. albicans ATCC 14053 [1], in the assay with C. neoformans ATCC 66031 and in the assay on C. albicans ATCC 14053 [3] were 865 µg/mL (≈ 3880 µM), 433 µg/mL (≈ 1940 µM) and 865 µg/mL (≈ 3880 µM), respectively. The FIC index in the assay on C. albicans ATCC 14053 [2] was 0.30. The “fold less antifungal inhibition than 1g used alone” value with C. albicans ATCC 14053 [2] (mixture with FLC, C. albicans, SDB) is “approximately 2 fold”.
`O=C(O)CCCCCCCCCCBr` [11-Bromoundecanoic acid, reference compound]: the minimal inhibitory concentration (MIC) with C. albicans ATCC 14053 [1] was determined as 371 µg/mL (≈ 1400 µM); against C. neoformans ATCC 66031, 23 µg/mL (≈ 86.7 µM); in the assay with A. niger ATCC 16404, 93 µg/mL (≈ 351 µM); against C. albicans ATCC 14053 [3] it was 185 µg/mL (≈ 698 µM). The FIC index in the assay with C. albicans ATCC 14053 [2] stood at 0.52.
Regarding `CCCCCCC(Br)C(=O)OC(Cn1cncn1)(Cn1cncn1)c1ccc(F)cc1F` (stereo not shown) [Compound 1g, O-2-Bromooctanoylfluconazole], in the assay with C. neoformans ATCC 66031, the “MIC C. neoformans ATCC 66031, SDB” value is 14 µg/mL (≈ 27.4 µM). In the assay with A. niger ATCC 16404, the “fold more potent than FLC against A. niger” value is reported as “at least 5.2 fold” and the “MIC A. niger ATCC 16404, SDB” value came to 111 µg/mL (≈ 217 µM). Also, in the assay with C. albicans ATCC 14053 [2], the FIC index is on record as 1.05. In the assay on C. albicans ATCC 14053 [3], the “fold more active than FLC against C. albicans in SDB” value was “at least 40 fold”; the “MIC C. albicans ATCC 14053, SDB” value was found to be 111 µg/mL (≈ 217 µM); the “fold less antifungal activity against C. albicans in SDB than in RPMI” value came out at 8 fold.
Turning to `CCCCCCCCCCCCC(Br)C(=O)OC(Cn1cncn1)(Cn1cncn1)c1ccc(F)cc1F` (stereo not shown) [Compound 1i, O-2-Bromomyristoylfluconazole], the “MIC C. albicans ATCC 14053, RPMI” value against C. albicans ATCC 14053 [1] stood at 731 µg/mL (≈ 1230 µM). Besides, the “MIC C. neoformans ATCC 66031, SDB” value in the assay with C. neoformans ATCC 66031 was 731 µg/mL (≈ 1230 µM). Moreover, the “MIC A. niger ATCC 16404, SDB” value in the assay on A. niger ATCC 16404 was over 731 µg/mL. The “MIC C. albicans ATCC 14053, SDB” value in the assay on C. albicans ATCC 14053 [3] stood at 731 µg/mL (≈ 1230 µM).
As to `O=C(CCCCCCCCCCBr)OC(Cn1cncn1)(Cn1cncn1)c1ccc(F)cc1F` [Compound 1j, O-11-Bromoundecanoylfluconazole], the “MIC C. albicans ATCC 14053, RPMI” value in the assay with C. albicans ATCC 14053 [1] amounted to 12 µg/mL (≈ 21.7 µM). Further, in the assay with A. niger ATCC 16404, the “fold more potent than FLC against A. niger” value is reported as at least 1.5 fold and the “MIC A. niger ATCC 16404, SDB” value came out at 395 µg/mL (≈ 714 µM). For the same molecule, the FIC index with C. albicans ATCC 14053 [2] is 1.04. Besides, in the assay on C. albicans ATCC 14053 [3], the “fold more active than FLC against C. albicans in SDB” value is reported as at least 22 fold; the “MIC C. albicans ATCC 14053, SDB” value was determined as 198 µg/mL (≈ 358 µM); the “fold less antifungal activity against C. albicans in SDB than in RPMI” value was 17 fold.
Take `O=C(OCCCl)OC(Cn1cncn1)(Cn1cncn1)c1ccc(F)cc1F` [Compound 1k, O-2-Chloroethyloxycarbonylfluconazole]: the “MIC C. albicans ATCC 14053, RPMI” value in the assay on C. albicans ATCC 14053 [1] worked out at 977 µg/mL (≈ 2370 µM). Further, the “MIC C. neoformans ATCC 66031, SDB” value in the assay on C. neoformans ATCC 66031 is over 977 µg/mL. Moreover, in the assay with A. niger ATCC 16404, the “MIC A. niger ATCC 16404, SDB” value was over 977 µg/mL. In the assay on C. albicans ATCC 14053 [3], the “MIC C. albicans ATCC 14053, SDB” value is over 977 µg/mL.
As for `O=C(OC(Cn1cncn1)(Cn1cncn1)c1ccc(F)cc1F)c1ccccc1O` [Compound 1l, O-Salicylfluconazole], in the assay with C. albicans ATCC 14053 [1], the “MIC C. albicans ATCC 14053, RPMI” value is “≧1,212 μg/mL”. Further, in the assay on C. neoformans ATCC 66031, the “MIC C. neoformans ATCC 66031, SDB” value is >1,212 μg/mL. Besides, the “MIC A. niger ATCC 16404, SDB” value in the assay on A. niger ATCC 16404 was >1,212 μg/mL. Besides, the “MIC C. albicans ATCC 14053, SDB” value in the assay with C. albicans ATCC 14053 [3] is reported as >1,212 μg/mL.
On to `[N-]=[N+]=NC(Cn1cncn1)(Cn1cncn1)c1ccc(F)cc1F` [Compound N3], for which the MIC in the assay on C. albicans ATCC 14053 [1] was over 610 µg/mL; against C. neoformans ATCC 66031, 19 µg/mL (≈ 57.4 µM); in the assay with A. niger ATCC 16404, 610 µg/mL (≈ 1840 µM); against C. albicans ATCC 14053 [3], over 610 µg/mL.
As to `OC(Cn1cncn1)(Cn1cncn1)c1ccc(F)cc1F` [FLC, 1,3-bis(1H-1,2,4-triazol-1-yl)-2-(2,4-difluorophenyl)-propan-2-ol, reference compound], the MIC with C. albicans ATCC 14053 [1] is 2.3 µg/mL (≈ 7.51 µM); against C. neoformans ATCC 66031, 2.4 µg/mL (≈ 7.84 µM); against A. niger ATCC 16404, over 580 µg/mL; against C. albicans ATCC 14053 [3] it was at least 4440 µg/mL.
Taken in the same sequence, the figures for `Fc1ccc(C(I)(Cn2cncn2)Cn2cncn2)c(F)c1` [I] were 749 µg/mL (≈ 1800 µM), 47 µg/mL (≈ 113 µM), 749 µg/mL (≈ 1800 µM) and over 749 µg/mL.
Taken in the same sequence, the figures for `CS(=O)(=O)C(Cn1cncn1)(Cn1cncn1)c1ccc(F)cc1F` [Mesyl] were 645 µg/mL (≈ 1750 µM), 40 µg/mL (≈ 109 µM), 1290 µg/mL (≈ 3500 µM) and 1290 µg/mL (≈ 3500 µM).
In the case of `CCCCCCCCCCCCCC(=O)O` [Tetradecanoic acid, reference compound], the minimal inhibitory concentration (MIC) in the assay on C. albicans ATCC 14053 [1] is over 876 µg/mL; in the assay with C. neoformans ATCC 66031, over 529 µg/mL; in the assay with A. niger ATCC 16404, over 529 µg/mL; in the assay on C. albicans ATCC 14053 [3] it was 1750 µg/mL (≈ 7660 µM). In addition, in the assay on C. neoformans ATCC 66031, the “MIC C. neoformans ATCC 66031, SDB” value is over 529 µg/mL.
On to `Cc1ccc(S(=O)(=O)C(Cn2cncn2)(Cn2cncn2)c2ccc(F)cc2F)cc1` [Tosyl], for which the MIC in the assay on C. albicans ATCC 14053 [1] was 365 µg/mL (≈ 821 µM); against C. neoformans ATCC 66031, 46 µg/mL (≈ 103 µM); against A. niger ATCC 16404, over 731 µg/mL; against C. albicans ATCC 14053 [3], over 731 µg/mL.

These data come from patent publication US7351731B2, “Azole derivatives and methods for making the same” (Board of Governors for Higher Education, State of Rhode …, priority 2005, dated 2008).
